Measurements: US12569498B2, “Methods and compositions for the prevention and treatment of ischemia reperfusion injury and infection” (CHILDREN'S NATIONAL MEDICAL CENTER, priority 2019, dated 2026)
“Also recorded” adds a separate entry of the source.

Experiments:
[1] = cited from earlier work
[2] = tested on: adhesion molecules E-selectin, ICAM-1 and VCAM-1; details: Saeed 2005; cited from earlier work
α7nAChR = α7nAChR (Homo sapiens, UniProt P36544); details: peak concentrations in smokers / levels with therapeutic dosing in humans (Campling 2013); cited from earlier work
Sequence of α7nAChR (P36544 23-502): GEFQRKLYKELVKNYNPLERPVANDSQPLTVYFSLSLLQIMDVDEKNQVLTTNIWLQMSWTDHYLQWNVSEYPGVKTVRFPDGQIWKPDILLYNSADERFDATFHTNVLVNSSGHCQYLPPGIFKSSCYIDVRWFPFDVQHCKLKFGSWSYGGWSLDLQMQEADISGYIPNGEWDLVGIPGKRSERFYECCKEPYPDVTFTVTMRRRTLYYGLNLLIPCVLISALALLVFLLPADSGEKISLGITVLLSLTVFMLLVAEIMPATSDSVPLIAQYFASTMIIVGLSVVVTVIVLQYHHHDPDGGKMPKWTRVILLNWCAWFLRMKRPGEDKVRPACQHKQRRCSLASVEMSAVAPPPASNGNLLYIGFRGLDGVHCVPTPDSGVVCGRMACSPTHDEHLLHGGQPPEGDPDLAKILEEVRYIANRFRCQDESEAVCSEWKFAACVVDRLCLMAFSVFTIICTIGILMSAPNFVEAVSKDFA

[3] = Renal scar formation and trichrome collagen quantification after acute pyelonephritis; format: in vivo, C3H/HeOuJ mice; details: 21 days following completion of antibiotic therapy; varenicline plus ceftriaxone vs ceftriaxone alone; p=0.001
Experimental: To initiate pyelonephritis, the bladder was catheterized with a 24-gauge angiocatheter and a total volume of 100 μL of a phosphate-buffered saline containing […] colony forming units (CFU) of CFT073 uropathogenic Escherichia coli (UPEC) was then instilled.
Tissues were preserved in formalin for 72 hours then stored in ethanol. Sections were cut to a 5 μm thickness and stained with H&E or Masson trichrome. Photographs were obtained at 20× resolution with Olympus VS120 virtual slide microscope system. The images were then analyzed with ImageJ Fiji software in order to quantify collagen deposition as previously described (Chen 2017). As collagen deposition would be expected as long-term sequelae of IRI, the trichrome stains of the long-term specimen were examined. All artifacts from the staining process as well as gross collecting system were cropped from these images prior to analysis. A color deconvolution plugin was used to separate the trichrome images into the separate colors. Analysis was performed based upon the percentage of deposition of collagen in the green image compared to the overall area of the kidneys.
Tissues harvested 21 days following completion of antibiotic therapy were subjected to trichome staining to assess for global collagen deposition. After removing artifacts (to ensure only parenchyma was included in the analysis), a color deconvolution plugin was used for ImageJ to divide the images into the respective three colors of the trichrome stain. A threshold was set and collagen was quantified as a percentage of green color in respect to the area of the entire kidney (FIG. 13).

[4] = tested on: CFT073 uropathogenic Escherichia coli (UPEC); details: kidneys harvested after the final dose of antibiotics; ceftriaxone 250 mg/kg s.c. twice daily for 5 days
Experimental: As previously described, female C3H/HeOuJ mice were utilized due to a high incidence of vesicoureteral reflux (VUR) (Li 2017; Murawski 2010; Bowen 2013) and reliable creation of pyelonephritis following bladder inoculation. To initiate pyelonephritis, the bladder was catheterized with a 24-gauge angiocatheter and a total volume of 100 μL of a phosphate-buffered saline containing 108 colony forming units (CFU) of CFT073 uropathogenic Escherichia coli (UPEC) was then instilled. Following the initial bladder inoculation, pyelonephritis was allowed to progress untreated for 5 days.
Following the initial 5-day incubation period, 2 mice were sacrificed to confirm infection. The remaining mice were then treated with ceftriaxone alone (control) or ceftriaxone with varenicline (treatment). All mice received 250 mg/kg of subcutaneous ceftriaxone administered twice daily for a period of 5 days. Animals in the treatment group also received a concurrent twice-daily dose of intraperitoneal varenicline (1 mg/kg) during the first 48 hours of treatment. […] Animals were sacrificed at 14 days following the initial bladder inoculation to assess short-term outcomes, while long-term outcomes were assessed 30 days following initial bladder inoculation.

[5] = tested on: pro-fibrotic genes Col1, Col3, Vim, SMA; experiment: RT-PCR of pro-fibrotic markers in testis 30 days after torsion; format: in vivo, CD1 mice; details: for relative expression of collagen 1 (Col1) / relative expression of collagen 3 (Col3) / relative expression of smooth muscle actin (Sma) / relative expression of vimentin (Vim): 30 days following torsion, vs untreated
Experimental: (§1) Mice underwent testicular torsion as previously described (Lysiak 2001). Briefly, mice were anesthetized with isoflurane over a heating pad. The right testis was delivered through a low scrotal incision and rotated counterclockwise 720 degrees to induce ischemia for 2 hours. […] All animals were injected with long-acting buprenorphine (0.1 mg/kg) for long-term pain control prior to being recovered from anesthesia. Mice were euthanized either 18 hours or 30 days following torsion. Mice kept for 30 days after surgery were weighed on a weekly basis.
(§2) Cytisine (Sigma-Aldrich, St. Louis, MO) was administered intraperitoneally at a dose of 0.1 μg/gram either 1 hour before torsion or 1 hour after torsion (1 hour prior to detorsion). Varenicline ([…]) was administered as an intraperitoneal injection one hour after the onset of torsion and then continued every 12 hours for a total of 4 doses.
RNA was isolated from testis tissue using RNEasy mini kit (Qiagen, Hilden, Germany) using the manufacturer's protocol. RNA concentration was measured with Nanodrop 8000 (Thermo Scientific, Waltham, MA). cDNA was synthesized using Superscript First-Strand Synthesis system for RT-PCR (Invitrogen, Carlsbad, CA) on a GeneAmp PCR System 9700 (Applied Biosystems, Foster City, CA) Real-Real-time PCR was performed using QuantStudio 7 Flex (Applied Biosystems, Foster City, CA). Software Quantstudio Real-Time PCR Software (Thermo Fisher Scientific, Waltham, MA). TaqMan Gene Expression Assays (Applied Biosystems, Foster City, CA). Standard TaqMan primers were used for Col1, Col3, Vim, SMA.

[6] = Masson trichrome staining and ImageJ quantification of collagen in testis 30 days after torsion; format: in vivo, CD1 mice; details: 30 days following torsion, vs untreated, cytisine p<0.01, varenicline p<0.0001
Experimental: as §1, §2
Testis tissue was harvested and stored in 70% ethanol. Fixation, embedding, sectioning, and staining were performed by the research pathology core at George Washington University. Sections were cut at a thickness of […]. Tissues were stained for H&E or Masson trichrome. Photographs were scanned at 20× resolution with Olympus VS120 virtual slide microscope system. TIF images were analyzed with ImageJ Fiji software as previously described (Caetano, Fronza et al. 2016). The color deconvolution plugin was used to perform ImageJ analysis on an area measuring 3000 square pixels. Automatic thresholding was performed. The amount of collagen in each area is expressed as the percentage of blue pixels in the image area taken as an average of 3 non-overlapping measurements.

[7] = Testis weight vs contralateral testis 30 days after torsion (testicular atrophy); format: in vivo, CD1 mice; details: 30 days after reperfusion, vs untreated
Experimental: (§3) Unilateral testicular torsion was induced in mature male CD1 mice by rotating the right testicle 720 degrees for 2 hours. Treatment with cytisine or varenicline was initiated one hour prior or one hour after the creation of testicular torsion. Testes were harvested 18 hours and 30 days following reperfusion. The acute inflammatory response was quantified with FACS analysis, […], reduced glutathione levels and quantification of the expression of IRI markers. Long term (30 day) outcomes were assessed by histologic evaluation, quantification of the expression of pro-fibrotic genes and measurement of testicular weight.
as §1, §2
The degree of testicular atrophy was determined by comparing the weight of the torsed testis to the contralateral control testis 30 days after reperfusion.

[8] = tested on: CD45+ immune cells in the torsed testis; experiment: Flow cytometry of CD45+ immune cell infiltrate in testis after testicular torsion; format: in vivo, CD1 mice; details: cytisine 0.1 μg/gram i.p. 1 hour before torsion; 18 hours after reperfusion; vs mice without cytisine; P<0.0001
Experimental: as §3
Mice underwent testicular torsion as previously described (Lysiak 2001). Briefly, mice were anesthetized with isoflurane over a heating pad. […]
Eighteen hours after reperfusion of the testis in the cytisine group and 48 hours after reperfusion in the varenicline group, bilateral testes were harvested, homogenized and digested with digestion solution containing 0.5% FBS, 20 mM HEPES, RPMI Medium, 0.057 U/ml DNase I, 1 mg/ml collagenase b. Cells were washed, counted with a hemocytometer and 1 million then diluted to 1 million cells per mL. […] For each sample 300,000 live cells were counted using BD FACSCalibur (BD Biosciences, San Jose, CA) and analyzed with FlowJo 9.0 software (TreeStar, Ashland, OR).

[9] = tested on: oxidative stress within the testis; experiment: Myeloperoxidase activity and reduced glutathione levels in testis after testicular torsion; format: in vivo, CD1 mice; details: cytisine an hour prior to onset of torsion; vs untreated controls
Experimental: as §1, with “Mice were euthanized either 18 hours or 30 days following torsion.” left out
as §2
Tissues were harvested and stored at −80° C. until use. Glutathione reductase activity was measured by use of glutathione reductase assay Kit (Sigma-Aldrich, St. Louis, MO). Testis tissue was homogenized in 5% sulfosalicylic Acid (SSA) solution. Samples were then centrifuged and supernatant was reserved. Supernatants were added to a reaction mixture containing 95 mM potassium phosphate buffer, pH 7.0, 0.95 mM EDTA, 0.038 mg/mL NADPH, 0.031 mg/mL DTNB, 0.115 units/mL glutathione reductase, and 0.24% SSA. Absorbance at 412 nm was recorded. Glutathione results were expressed as nm GSH per mL sample.
Following an ischemic event, the initial inflammatory response is characterized by an increase in oxidative stress and production of reactive oxygen species. In order to determine the effect of cytisine treatment on the level of reactive oxygen species (ROS) following testicular torsion, testicular levels of myeloperoxidase (MPO), a marker of neutrophil activation, and reduced glutathione (GSH) levels (an indirect measure of oxidative stress within the testis) were measured.

[10] = literature, cited from earlier work; for testicular myeloperoxidase activity: acutely; for testicular myeloperoxidase activity / long term spermatogenesis: animal models of testicular torsion
[11] = administration prior to warm renal ischemia (Gigliotti 2013)
[12] = administered prior to testicular reperfusion

CN1CCC[C@H]1c1cccnc1 [nicotine]
protection of the kidney from IRI ([1]; mouse, after renal artery ligation (Sadis 2007, Yeboah 2008)): protects the mouse kidney from IRI
expression of adhesion molecules such as E-selectin, ICAM-1 and VCAM-1 [2]: decreasing the expression of adhesion molecules
activation of α7nAChR at clinically reached concentrations (α7nAChR): do not activate α7nAChR

CO/N=C(\C(=O)N[C@@H]1C(=O)N2C(C(=O)O)=C(CSc3nc(=O)c(=O)[nH]n3C)CS[C@H]12)c1csc(N)n1 [ceftriaxone]
collagen deposition in the kidneys (percentage of green pigment per area of entire kidney) [3]: significantly higher
bacterial growth from cultured kidneys [4]: lack of bacterial growth

O=c1cccc2n1C[C@@H]1CNC[C@H]2C1 [cytisine]
relative expression of collagen 1 (Col1) [5]: reduced the expression; also recorded: significantly decreased
relative expression of collagen 3 (Col3) [5]: reduced the expression; also recorded: significantly decreased
relative expression of smooth muscle actin (Sma) [5]: reduced the expression; also recorded: significantly decreased
relative expression of vimentin (Vim) [5]: reduced the expression; also recorded: significantly decreased
relative expression of collagen 1 (Col1) ([5]; listed as Cytisine): significantly decreased
relative expression of collagen 3 (Col3) ([5]; listed as Cytisine): significantly decreased
relative expression of smooth muscle actin (Sma) ([5]; listed as Cytisine): significantly decreased
relative expression of vimentin (Vim) ([5]; listed as Cytisine): significantly decreased
expression of pro-fibrotic genes / genetic markers of testicular fibrosis ([5]; long term (30 day) outcome, genes not itemised): decreased expression of pro-fibrotic genes
acute immune infiltrate after warm renal ischemia [1, 11]: reduced the acute immune infiltrate
long term renal fibrosis after warm renal ischemia [1, 11]: prevented long term renal fibrosis
long term renal function after warm renal ischemia [1, 11]: preserved long term renal function
collagen content of testis (trichrome staining, percentage of collagen) [6]: untreated group had significantly higher collagen content; also recorded: reduced histologic evidence of testicular fibrosis
collagen content of testis (trichrome staining, percentage of collagen) ([6]; listed as Cytisine): significantly higher percentage of collagen in the untreated animals
testicular atrophy (weight of torsed testis vs contralateral control testis) ([7]; drug given an hour after the onset of torsion): limited long term testicular atrophy
testicular atrophy (weight of torsed testis vs contralateral control testis) ([7]; drug given an hour after the onset of torsion, listed as Cytisine): limited testicular atrophy
testicular atrophy (weight of torsed testis vs contralateral control testis) ([7]; drug given an hour prior to torsion, p<0.05): significantly less testicular atrophy; also recorded: decreased testicular atrophy
activation of α7nAChR at clinically reached concentrations (α7nAChR): do not activate α7nAChR
CD45+ immune cells in the torsed testis [8]: significantly decreased CD45+ immune cells; also recorded: decreases the number of CD45+ cells
myeloperoxidase activity in testis [9]: decreased levels of myeloperoxidase activity
reduced glutathione levels in testis [9]: increased levels reduced glutathione

[Zn] [Zinc]
testicular myeloperoxidase activity [10]: decrease testicular myeloperoxidase activity
long term spermatogenesis [10]: preserve long term spermatogenesis

COc1cc(C(C)=O)ccc1O [Apocynin]
testicular myeloperoxidase activity [10]: decrease testicular myeloperoxidase activity
long term spermatogenesis [10]: preserve long term spermatogenesis

Cc1ccc(-c2ncc(Cl)cc2-c2ccc(S(C)(=O)=O)cc2)cn1 [Etoricoxib]
apoptosis [10, 12]: decrease apoptosis
oxidative stress [10, 12]: decrease
